# What was measured:
# Experiment in all cases: Cell viability drug screen, 12-point dose-response AUC
# Type in all cases: cell-based, human
# YCC3 = YCC3 cells, 72 hours
# In short: (§1)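 Twelve half-log concentrations per compound were tested on gastric cancer cells with an EMT phenotype (5×10^3/well, dosed 24 h post-seeding). Viability after 72 h was quantified via luminescence relative to 0.5% DMSO, and repeats were averaged.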
# SNU1750 = conditions: 72 hours; for Average Area Under the Viability Curve (AUC), AUC norm value: SNU1750 cells (SEM subtype)
# In short: as §1
# SK4 = conditions: 72 hours; for Average Area Under the Viability Curve (AUC), AUC norm value: SK4 cells (SEM subtype)
# In short: as §1
# NCC59 = NCC59 cells, 72 hours
# In short: as §1
# NCI_N87 = NCI_N87 cells, 72 hours
# In short: as §1
# NCC24 = NCC24 cells, 72 hours
# In short: as §1
# YCC11 = conditions: 72 hours; for Average Area Under the Viability Curve (AUC), AUC norm value: YCC11 cells (SEM subtype)
# In short: as §1
# SNU216 = conditions: 72 hours; for Average Area Under the Viability Curve (AUC), AUC norm value: SNU216 cells (non-SEM subtype)
# In short: (§2)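 Luminescent viability readings, taken 15 min after reagent addition at room temperature, were normalized to the 0.5% DMSO control to build 12-point dose-response curves. Trapezoidal integration gave the AUC. Cells had been plated at 5×10^3 per well and then exposed to half-log dilutions for 72 h.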
# Hs746T = conditions: 72 hours; for Average Area Under the Viability Curve (AUC), AUC norm value: Hs746T cells (SEM subtype)
# In short: as §1
# MKN45 = conditions: 72 hours; for Average Area Under the Viability Curve (AUC), AUC norm value: MKN45 cells (non-SEM subtype)
# In short: as §2
# KATO3 = KATO3 cells, 72 hours
# In short: as §1
# SNU16 = SNU16 cells, 72 hours
# In short: as §1
# YCC2 = YCC2 cells, 72 hours
# In short: as §1
# SNU1967 = SNU1967 cells, 72 hours
# In short: as §1
# NCC20 = NCC20 cells, 72 hours
# In short: as §1
# SNU484 = conditions: 72 hours; for Average Area Under the Viability Curve (AUC), AUC norm value: SNU484 cells (SEM subtype)
# In short: as §1
# OCUM1 = OCUM1 cells, 72 hours
# In short: as §1
# MKN28 = MKN28 cells, 72 hours
# In short: as §1
# SNU668 = conditions: 72 hours; for Average Area Under the Viability Curve (AUC), AUC norm value: SNU668 cells (SEM subtype)
# In short: as §1
# SNU719 = SNU719 cells, 72 hours
# In short: as §2
# SNU601 = SNU601 cells, 72 hours
# In short: as §1
# SNU638 = SNU638 cells, 72 hours
# In short: as §1
# MKN1 = MKN1 cells, 72 hours
# In short: as §1
# MKN74 = MKN74 cells, 72 hours
# In short: as §2
# NCC19 = NCC19 cells, 72 hours
# In short: as §1
# AGS = conditions: 72 hours; for Average Area Under the Viability Curve (AUC), AUC norm value: AGS cells (non-SEM subtype)
# In short: as §2
# SNU1 = SNU1 cells, 72 hours
# In short: as §1
# SNU620 = SNU620 cells, 72 hours
# In short: as §1
# FU97 = test system: FU97; parameters: Average Area Under the Viability Curve (AUC), AUC norm value: scale not given here; conditions: FU97 cells, 72 hours
# In short: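 Trapezoidal AUC of a 12-point, DMSO-normalized dose-response curve. Luminescent viability was measured after 72 h of exposure at 37° C to half-log serial dilutions (0.5% DMSO control), dosed 24 h after plating FU97 cells at 5×10^3 per well.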
compound,measurement,setting,value
C#Cc1cccc(Nc2ncnc3cc(OC)c(OCCCCCCC(=O)NO)cc23)c1 [CUDC-101],"area under the viability curve (AUC), normalized",YCC3; 12-point dose-response,0.7562
same,"area under the viability curve (AUC), normalized","SNU1750; SNU1750 cells, 12-point dose-response",−1.203
same,"area under the viability curve (AUC), normalized","SK4; SK4 cells, 12-point dose-response",−0.04342
same,"area under the viability curve (AUC), normalized",NCC59; 12-point dose-response,1.8155
same,"area under the viability curve (AUC), normalized",NCI_N87; 12-point dose-response,−0.4217
same,"area under the viability curve (AUC), normalized",NCC24; 12-point dose-response,0.1814
same,"area under the viability curve (AUC), normalized","YCC11; YCC11 cells, 12-point dose-response",0.3451
same,"area under the viability curve (AUC), normalized","SNU216; SNU216 cells, 12-point dose-response",−0.5746
same,"area under the viability curve (AUC), normalized","Hs746T; Hs746T cells, 12-point dose-response",0.4609
same,"area under the viability curve (AUC), normalized","MKN45; MKN45 cells, 12-point dose-response",1.5
same,"area under the viability curve (AUC), normalized",KATO3; 12-point dose-response,0.683
same,"area under the viability curve (AUC), normalized",SNU16; 12-point dose-response,0.427
same,"area under the viability curve (AUC), normalized",YCC2; 12-point dose-response,−0.1991
same,"area under the viability curve (AUC), normalized",SNU1967; 12-point dose-response,−0.301
same,"area under the viability curve (AUC), normalized",NCC20; 12-point dose-response,−0.7885
same,"area under the viability curve (AUC), normalized","SNU484; SNU484 cells, 12-point dose-response",0.5831
same,"area under the viability curve (AUC), normalized",OCUM1; 12-point dose-response,0.3332
same,"area under the viability curve (AUC), normalized",MKN28; 12-point dose-response,−0.7663
same,"area under the viability curve (AUC), normalized","SNU668; SNU668 cells, 12-point dose-response",0.9508
same,"area under the viability curve (AUC), normalized",SNU719; 12-point dose-response,0.9348
same,"area under the viability curve (AUC), normalized",SNU601; 12-point dose-response,−0.1084
same,"area under the viability curve (AUC), normalized",SNU638; 12-point dose-response,−0.8807
same,"area under the viability curve (AUC), normalized",MKN1; 12-point dose-response,0.6267
same,"area under the viability curve (AUC), normalized",MKN74; 12-point dose-response,−0.5407
same,"area under the viability curve (AUC), normalized",NCC19; 12-point dose-response,1.187
same,"area under the viability curve (AUC), normalized","AGS; AGS cells, 12-point dose-response",−0.9569
same,"area under the viability curve (AUC), normalized",SNU1; 12-point dose-response,0
same,"area under the viability curve (AUC), normalized",SNU620; 12-point dose-response,−0.4289
same,"area under the viability curve (AUC), normalized",FU97; 12-point dose-response,−0.4688
"CO[C@H]1C(=O)[C@]2(C)[C@@H](OC)C[C@H]3OC[C@@]3(OC(C)=O)[C@H]2[C@H](OC(=O)c2ccccc2)[C@]2(O)C[C@H](OC(=O)[C@H](O)[C@@H](NC(=O)OC(C)(C)C)c3ccccc3)C(C)=C1C2(C)C [Cabazitaxel (Jevtana), Cabazitaxel]","Average Area Under the Viability Curve (AUC), AUC norm value",YCC3,3.384
same,"Average Area Under the Viability Curve (AUC), AUC norm value",SNU1750,0.6058
same,"Average Area Under the Viability Curve (AUC), AUC norm value",SK4,−0.7298
same,"Average Area Under the Viability Curve (AUC), AUC norm value",NCC59,3.939
same,"Average Area Under the Viability Curve (AUC), AUC norm value",NCI_N87,−1.712
same,"Average Area Under the Viability Curve (AUC), AUC norm value",NCC24,−1.077
same,"Average Area Under the Viability Curve (AUC), AUC norm value",YCC11,−1.189
same,"Average Area Under the Viability Curve (AUC), AUC norm value",SNU216,2.335
same,"Average Area Under the Viability Curve (AUC), AUC norm value",Hs746T,1.085
same,"Average Area Under the Viability Curve (AUC), AUC norm value",MKN45,2.138
same,"Average Area Under the Viability Curve (AUC), AUC norm value",KATO3,4.95
same,"Average Area Under the Viability Curve (AUC), AUC norm value",SNU16,−2.759
same,"Average Area Under the Viability Curve (AUC), AUC norm value",YCC2,0.2073
same,"Average Area Under the Viability Curve (AUC), AUC norm value",SNU1967,1.228
same,"Average Area Under the Viability Curve (AUC), AUC norm value",NCC20,−0.8551
same,"Average Area Under the Viability Curve (AUC), AUC norm value",SNU484,−0.7278
same,"Average Area Under the Viability Curve (AUC), AUC norm value",OCUM1,3.086
same,"Average Area Under the Viability Curve (AUC), AUC norm value",MKN28,−2.213
same,"Average Area Under the Viability Curve (AUC), AUC norm value",SNU668,0.4109
same,"Average Area Under the Viability Curve (AUC), AUC norm value",SNU719,6.209
same,"Average Area Under the Viability Curve (AUC), AUC norm value",SNU601,−1.688
same,"Average Area Under the Viability Curve (AUC), AUC norm value",SNU638,−0.1608
same,"Average Area Under the Viability Curve (AUC), AUC norm value",MKN1,−1.266
same,"Average Area Under the Viability Curve (AUC), AUC norm value",MKN74,0.4319
same,"Average Area Under the Viability Curve (AUC), AUC norm value",NCC19,0
same,"Average Area Under the Viability Curve (AUC), AUC norm value",AGS,−2.201
same,"Average Area Under the Viability Curve (AUC), AUC norm value",SNU1,−3.451
same,"Average Area Under the Viability Curve (AUC), AUC norm value",SNU620,−3.501
same,"Average Area Under the Viability Curve (AUC), AUC norm value",FU97,0.3061
CC[C@@]1(O)C(=O)OCc2c1cc1n(c2=O)Cc2cc3ccccc3nc2-1 [Camptothecin],"Average Area Under the Viability Curve (AUC), AUC norm value",YCC3,1.3493
same,"Average Area Under the Viability Curve (AUC), AUC norm value",SNU1750,0.02348
same,"Average Area Under the Viability Curve (AUC), AUC norm value",SK4,−0.8823
same,"Average Area Under the Viability Curve (AUC), AUC norm value",NCC59,1.208
same,"Average Area Under the Viability Curve (AUC), AUC norm value",NCI_N87,0.7261
same,"Average Area Under the Viability Curve (AUC), AUC norm value",NCC24,0.5273
same,"Average Area Under the Viability Curve (AUC), AUC norm value",YCC11,−0.5718
same,"Average Area Under the Viability Curve (AUC), AUC norm value",SNU216,1.3094
same,"Average Area Under the Viability Curve (AUC), AUC norm value",Hs746T,0.3026
same,"Average Area Under the Viability Curve (AUC), AUC norm value",MKN45,0.1203
same,"Average Area Under the Viability Curve (AUC), AUC norm value",KATO3,4.769
same,"Average Area Under the Viability Curve (AUC), AUC norm value",SNU16,−1.529
same,"Average Area Under the Viability Curve (AUC), AUC norm value",YCC2,0
same,"Average Area Under the Viability Curve (AUC), AUC norm value",SNU1967,−1.86
same,"Average Area Under the Viability Curve (AUC), AUC norm value",NCC20,−1.829
same,"Average Area Under the Viability Curve (AUC), AUC norm value",SNU484,1.047
same,"Average Area Under the Viability Curve (AUC), AUC norm value",OCUM1,−0.5033
same,"Average Area Under the Viability Curve (AUC), AUC norm value",MKN28,0.3881
same,"Average Area Under the Viability Curve (AUC), AUC norm value",SNU668,−1.202
same,"Average Area Under the Viability Curve (AUC), AUC norm value",SNU719,3.079
same,"Average Area Under the Viability Curve (AUC), AUC norm value",SNU601,−1.853
same,"Average Area Under the Viability Curve (AUC), AUC norm value",SNU638,−0.9365
same,"Average Area Under the Viability Curve (AUC), AUC norm value",MKN1,−0.642
same,"Average Area Under the Viability Curve (AUC), AUC norm value",MKN74,−0.08807
same,"Average Area Under the Viability Curve (AUC), AUC norm value",NCC19,0.9854
same,"Average Area Under the Viability Curve (AUC), AUC norm value",AGS,−1.989
same,"Average Area Under the Viability Curve (AUC), AUC norm value",SNU1,−2.182
same,"Average Area Under the Viability Curve (AUC), AUC norm value",SNU620,−1.867
same,"Average Area Under the Viability Curve (AUC), AUC norm value",FU97,1.097
